Laboratory results from paper PMC7377239, “Cardiovascular Effects of Polychlorinated Biphenyls and Their Major Metabolites” (Environmental Health Perspectives, 2020).
Structures can show the parent of a compound that is named as a salt. Where two headings read alike, the source gives them in different places.

Test system: iCell cardiomyocytes (human iPSC-derived cardiomyocytes)
Test: High-content imaging of cytotoxicity and mitochondrial integrity in iPSC-CMs
Assay type: cell-based
Details: Homo sapiens; for viability at 0.01 µM / activity at 0.01 µM / viability at 0.1 µM / activity at 0.1 µM / viability at 1 µM / activity at 1 µM / viability at 10 µM / activity at 10 µM / viability at 100 µM / activity at 100 µM: Cardiomyocyte, 0.00 µM = 100.00; for viability at 0.1 µM / activity at 0.1 µM: 0.10 µM; for minimal effective concentration: iPSC-CM
Procedure, shortened: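 Readouts from high-content images were normalized to vehicle controls containing 0.5% vol/vol DMSO. They were fit to a four-parameter logistic model in R. Points of departure were set using a cutoff of one standard deviation across vehicle control means. Where no concentration–response was seen, the top tested concentration of 100μM was assigned as the no observable adverse effect level.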

With `O=S(=O)(O)Oc1ccc(-c2ccc(Cl)cc2)cc1` [4'-yl PCB 3 sulfate] the viability at 0.01 µM (1.5 h, read-out: cm.cam.90min) was 90.6%, the activity at 0.01 µM (1.5 h, read-out: cm.mii.90min) was 111% and the activity at 0.01 µM (1.5 h, read-out: cm.mito.90min) was 90.4%. The viability at 0.01 µM (1.5 h, read-out: cm.tc.90min) was 90.5%, the viability at 0.1 µM (1.5 h, read-out: cm.cam.90min) was 97.2% and the activity at 0.1 µM (1.5 h, read-out: cm.mii.90min) was 109%. It also gave an activity at 0.1 µM (1.5 h, read-out: cm.mito.90min) of 97.2%, a viability at 0.1 µM (1.5 h, read-out: cm.tc.90min) of 97.5% and a viability at 1 µM (1.5 h, read-out: cm.cam.90min) of 101%. For the same compound, the activity at 1 µM (1.5 h, read-out: cm.mii.90min) was 109%, the activity at 1 µM (1.5 h, read-out: cm.mito.90min) was 101% and the viability at 1 µM (1.5 h, read-out: cm.tc.90min) was 102%. For the same compound, the viability at 10 µM (1.5 h, read-out: cm.cam.90min) was 102%, the activity at 10 µM (1.5 h, read-out: cm.mii.90min) was 107% and the activity at 10 µM (1.5 h, read-out: cm.mito.90min) was 102%. For the same compound, the viability at 10 µM (1.5 h, read-out: cm.tc.90min) was 102%, the viability at 100 µM (1.5 h, read-out: cm.cam.90min) was 96.5% and the activity at 100 µM (1.5 h, read-out: cm.mii.90min) was 113%. For the same compound, the activity at 100 µM (1.5 h, read-out: cm.mito.90min) was 96.7%, the viability at 100 µM (1.5 h, read-out: cm.tc.90min) was 96.7% and the viability at 0.01 µM (24 h, read-out: cm.cam.24hrs) was 97.3%. The activity at 0.01 µM (24 h, read-out: cm.mii.24hrs) was 98.4%, the activity at 0.01 µM (24 h, read-out: cm.mito.24hrs) was 95.5% and the viability at 0.01 µM (24 h, read-out: cm.tc.24hrs) was 97.4%. For the same compound, the viability at 0.1 µM (24 h, read-out: cm.cam.24hrs) was 105%, the activity at 0.1 µM (24 h, read-out: cm.mii.24hrs) was 111% and the activity at 0.1 µM (24 h, read-out: cm.mito.24hrs) was 106%. For the same compound, the viability at 0.1 µM (24 h, read-out: cm.tc.24hrs) was 106%, the viability at 1 µM (24 h, read-out: cm.cam.24hrs) was 107% and the activity at 1 µM (24 h, read-out: cm.mii.24hrs) was 98.9%. It also gave an activity at 1 µM (24 h, read-out: cm.mito.24hrs) of 108%, a viability at 1 µM (24 h, read-out: cm.tc.24hrs) of 107% and a viability at 10 µM (24 h, read-out: cm.cam.24hrs) of 102%. The activity at 10 µM (24 h, read-out: cm.mii.24hrs) was 92%, the activity at 10 µM (24 h, read-out: cm.mito.24hrs) was 101% and the viability at 10 µM (24 h, read-out: cm.tc.24hrs) was 102%. The viability at 100 µM (24 h, read-out: cm.cam.24hrs) was 104%, the activity at 100 µM (24 h, read-out: cm.mii.24hrs) was 82.3% and the activity at 100 µM (24 h, read-out: cm.mito.24hrs) was 103%. For the same compound, the viability at 100 µM (24 h, read-out: cm.tc.24hrs) was 105%, the minimal effective concentration (1.5 h, read-out: cm.cam.90min POD) was 100 µM and the minimal effective concentration (1.5 h, read-out: cm.mii.90min POD) was 100 µM. The minimal effective concentration (1.5 h, read-out: cm.mito.90min POD) was 100 µM, the minimal effective concentration (1.5 h, read-out: cm.tc.90min POD) was 100 µM and the minimal effective concentration (24 h, read-out: cm.cam.24hrs POD) was 100 µM. It also gave a minimal effective concentration (24 h, read-out: cm.mii.24hrs POD) of 53.5 µM, a minimal effective concentration (24 h, read-out: cm.mito.24hrs POD) of 100 µM and a minimal effective concentration (24 h, read-out: cm.tc.24hrs POD) of 100 µM.
